Experimental data published in article PMC3853718 (Journal of Translational Medicine, 2013).
Read-outs that look alike come from different tables or passages of the source.

Experiments:
solid tumors = test: Tumor response by CT or MRI and RECIST; type: in vivo, human
mouse xenograft model = details: cited from earlier work
Rb phosphorylation = details: cited from earlier work
clinical = details: human, plasma
nude mice = details: once-daily administration for 7 days in nude mice; cited from earlier work
[1] = tested on: PHA-stimulated lymphocytes in whole blood; test: Ex vivo phytohemagglutinin lymphocyte stimulation assay (BrdU incorporation)
Procedure: Whole blood isolated from subjects was treated with phytohemagglutinin (PHA) to stimulate cell division in lymphocytes. Following a brief 30-minute exposure to bromodeoxyuridine (BrdU), cells were harvested and stained using an FITC-conjugated antibody specific for BrdU, counterstained with propidium iodide/RNase A, and analyzed using a FACSCalibur flow cytometer.

Compound: CCc1cnn2c(NCc3ccc[n+]([O-])c3)cc(N3CCCC[C@H]3CCO)nc12 [dinaciclib]
- Number of cycles (solid tumors; Subject 2902, NSCLC, 0.66 mg/m^2, stable disease): 6
- Number of cycles (solid tumors; Subject 2910, Pseudomyxoma peritonei, 2.59 mg/m^2, stable disease): 9
- Number of cycles (solid tumors; Subject 2913, Prostate cancer, 3.63 mg/m^2, stable disease): 4
- Number of cycles (solid tumors; Subject 2920, Melanoma, 3.63 mg/m^2, stable disease): 10
- Number of cycles (solid tumors; Subject 2926, Sarcoma, 7.11 mg/m^2, stable disease): 12
- Number of cycles (solid tumors; Subject 2928, Gastrointestinal stromal tumor, 7.11 mg/m^2, stable disease): 10
- Number of cycles (solid tumors; Subject 2931, Esophageal carcinoma, 7.11 mg/m^2, stable disease): 11
- Number of cycles (solid tumors; Subject 2932, Adenoid cyst carcinoma, 7.11 mg/m^2, stable disease): 5
- Number of cycles (solid tumors; Subject 2937, Adenoid cyst carcinoma, 14.0 mg/m^2, stable disease): 8
- Number of cycles (solid tumors; Subject 2945, NSCLC, 12.0 mg/m^2, stable disease): 4
- subjects with prolonged SD for at least 4 cycles of treatment (solid tumors; all dose levels): at least 10 subjects
- complete or partial responses (RECIST) (solid tumors; subjects with solid tumors, all dose levels): no observed complete or partial responses
- minimum effective dose, defined as >50% tumor growth inhibition (mouse xenograft model): 5 mg/kg
- Rb phosphorylation in mouse skin biopsies (Rb phosphorylation; 2 hours post treatment): partial loss
- Rb phosphorylation in mouse skin biopsies (Rb phosphorylation; 4 hours post treatment): complete loss of Rb phosphorylation
- AUC(0-inf) (clinical; intravenous, 0.33 mg/m2): 43 ng·h/mL
- AUC(0-t) (clinical; intravenous, 0.33 mg/m2): 42.8 ng·h/mL
- Cmax (clinical; intravenous, 0.33 mg/m2): 11.1 ng/mL
- Tmax (clinical; intravenous, 0.33 mg/m2): 1 h
- AUC(0-inf) (clinical; intravenous, 0.66 mg/m2): 27.6 ng·h/mL
- AUC(0-t) (clinical; intravenous, 0.66 mg/m2): 28.4 ng·h/mL
- Cmax (clinical; intravenous, 0.66 mg/m2): 13.2 ng/mL
- Tmax (clinical; intravenous, 0.66 mg/m2): 1 h
- half-life (clinical; intravenous, 0.66 mg/m2): 1.67 h
- AUC(0-inf) (clinical; intravenous, 1.32 mg/m2): 134 ng·h/mL
- AUC(0-t) (clinical; intravenous, 1.32 mg/m2): 134 ng·h/mL
- Cmax (clinical; intravenous, 1.32 mg/m2): 69.5 ng/mL
- Tmax (clinical; intravenous, 1.32 mg/m2): 1 h
- half-life (clinical; intravenous, 1.32 mg/m2): 3.38 h
- AUC(0-inf) (clinical; intravenous, 1.85 mg/m2): 216 ng·h/mL
- AUC(0-t) (clinical; intravenous, 1.85 mg/m2): 216 ng·h/mL
- Cmax (clinical; intravenous, 1.85 mg/m2): 108 ng/mL
- Tmax (clinical; intravenous, 1.85 mg/m2): 2 h
- half-life (clinical; intravenous, 1.85 mg/m2): 2.66 h
- Cmax (clinical; intravenous, 2.59 mg/m2): 104 ng/mL
- Tmax (clinical; intravenous, 2.59 mg/m2): 1 h
- half-life (clinical; intravenous, 2.59 mg/m2): 3.6 h
- AUC(0-inf) (clinical; intravenous, 3.63 mg/m2): 431 ng·h/mL
- AUC(0-t) (clinical; intravenous, 3.63 mg/m2): 405 ng·h/mL
- Cmax (clinical; intravenous, 3.63 mg/m2): 163 ng/mL
- Tmax (clinical; intravenous, 3.63 mg/m2): 1 h
- half-life (clinical; intravenous, 3.63 mg/m2): 3.59 h
- AUC(0-inf) (clinical; intravenous, 5.08 mg/m2): 327 ng·h/mL
- AUC(0-t) (clinical; intravenous, 5.08 mg/m2): 327 ng·h/mL
- Cmax (clinical; intravenous, 5.08 mg/m2): 173 ng/mL
- Tmax (clinical; intravenous, 5.08 mg/m2): 2 h
- half-life (clinical; intravenous, 5.08 mg/m2): 3.19 h
- AUC(0-inf) (clinical; intravenous, 7.11 mg/m2): 543 ng·h/mL
- AUC(0-t) (clinical; intravenous, 7.11 mg/m2): 542 ng·h/mL
- Cmax (clinical; intravenous, 7.11 mg/m2): 250 ng/mL
- Tmax (clinical; intravenous, 7.11 mg/m2): 2 h
- half-life (clinical; intravenous, 7.11 mg/m2): 3.04 h
- AUC(0-inf) (clinical; intravenous, 10 mg/m2): 687 ng·h/mL
- AUC(0-t) (clinical; intravenous, 10 mg/m2): 694 ng·h/mL
- Cmax (clinical; intravenous, 10 mg/m2): 319 ng/mL
- Tmax (clinical; intravenous, 10 mg/m2): 2 h
- half-life (clinical; intravenous, 10 mg/m2): 3.02 h
- AUC(0-inf) (clinical; intravenous, 12 mg/m2): 1150 ng·h/mL
- AUC(0-t) (clinical; intravenous, 12 mg/m2): 1150 ng·h/mL
- Cmax (clinical; intravenous, 12 mg/m2): 525 ng/mL
- Tmax (clinical; intravenous, 12 mg/m2): 2 h
- half-life (clinical; intravenous, 12 mg/m2): 3.28 h
- AUC(0-inf) (clinical; intravenous, 14 mg/m2): 2020 ng·h/mL
- AUC(0-t) (clinical; intravenous, 14 mg/m2): 2020 ng·h/mL
- Cmax (clinical; intravenous, 14 mg/m2): 821 ng/mL
- Tmax (clinical; intravenous, 14 mg/m2): 1 h
- half-life (clinical; intravenous, 14 mg/m2): 3.09 h
- half-life (clinical; iv): 1.5 to 3.6 h
- maximum tolerated dose, defined as the dose associated with 20% weight loss (nude mice): 60 mg/kg
- plasma concentration at which BrdU incorporation was completely inhibited ([1]; 46 subjects, 0.33 to 14 mg/m^2): > 200 ng/mL
- BrdU response rate ([1]; RP2D 12 mg/m^2, 7 evaluable subjects, responder = less than 5% BrdU incorporation, 2-sided 95% CI: 59%, 100%): 100%
- Mean percent difference in BrdU uptake (95% CI) ([1]; RP2D 12 mg/m^2, Day 1, Predose – 2 hours, 7 patients): 10.72 (4.69, 16.75) percent
- Mean percent difference in BrdU uptake (95% CI) ([1]; RP2D 12 mg/m^2, Day 1, Predose – 3 hours, 7 patients): 9.28 (1.44, 17.13) percent
- Mean percent difference in BrdU uptake (95% CI) ([1]; RP2D 12 mg/m^2, Day 1, Predose – 4 hours, 7 patients): 6.05 (-4.03, 16.12) percent
- Mean percent difference in BrdU uptake (95% CI) ([1]; RP2D 12 mg/m^2, Day 1, Predose – 6 hours, 7 patients): 10.16 (3.89, 16.43) percent
- Mean percent difference in BrdU uptake (95% CI) ([1]; RP2D 12 mg/m^2, Day 1, Predose – 8 hours, 6 patients): 8.76 (2.87, 14.65) percent
- Mean percent difference in BrdU uptake (95% CI) ([1]; RP2D 12 mg/m^2, Day 15, Predose – 2 hours, 7 patients): 14.82 (6.02, 23.61) percent
- Mean percent difference in BrdU uptake (95% CI) ([1]; RP2D 12 mg/m^2, Day 15, Predose – 4 hours, 7 patients): 5.47 (-4.17, 15.12) percent
- Mean percent difference in BrdU uptake (95% CI) ([1]; RP2D 12 mg/m^2, Day 15, Predose – 8 hours, 5 patients): 16.48 (5.63, 27.34) percent
- BrdU incorporation ([1]; majority of samples, at plasma concentration of 100 ng/mL): less than 5%
